Results on 34 molecules are retold here after PubChem BioAssay (NCI).

The structures appear in SMILES notation.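 Five compound concentrations were applied to cells in 96-well plates for 48 hours; endpoints were derived by simple linear interpolation of the resulting dose-response curve. The concentration for full growth arrest is given as TGI.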

Common to all, as to assay: DTP human tumour cell line panel, 48 h
The test system of assay [1] is OVCAR-3 ovarian.
Assay [2] relates to HL-60(TB) leukemia.
In assay [3] the test system is RXF 393 renal.
For assay [4], the system named is HCC-2998 colon.
The test system of assay [5] is U251 CNS.
The test system of assay [6] is LOX IMVI melanoma.
In assay [7] the test system is OVCAR-5 ovarian.
The test system of assay [8] is OVCAR-4 ovarian.
Assay [9] has as its system SR leukemia.

As to `CC(=O)Nc1[nH]c(=O)[nH]c(=O)c1N(C(C)=O)C(C)=O`, the concentration for total growth inhibition (TGI) in [1], in assay [2], in assay [3], in assay [4], in [5] and in assay [6] was greater than 100 µM throughout. In addition, the TGI in [7] and in assay [8] was greater than 100 µM in each case.
Regarding `COc1ccc(/C=C/CO)cc1OC`, the TGI in [1], in assay [3], in [4], in assay [5], in assay [7] and in assay [9] was greater than 100 µM in each case.
`Clc1ccc(CCN2CCOCC2)c(Cl)c1`: the TGI in [2], in assay [3], in assay [4], in assay [5], in assay [7] and in assay [8] was greater than 100 µM in each case. For the same molecule, in [9], the TGI is greater than 100 µM.
For `CCCC/C(C)=N/NC(N)=S`, the TGI in assay [1], in assay [2], in assay [3], in assay [4], in assay [5] and in [6] was greater than 100 µM each time. In addition, the TGI in assay [7] and in assay [9] was greater than 100 µM throughout.
On to `CCCCCCCCSC(SCCCCCCCC)=C1C(=O)N(c2ccccc2)N=C1C`, for which the TGI in [1] was greater than 100 µM; in [2], 43.7 µM; in [3] it was greater than 100 µM; in [4] it was greater than 100 µM; in assay [5], 34 µM; in [6] it was 36.2 µM. The TGI is greater than 100 µM in [7] and 34.6 µM in assay [9].
As to `C[P+](C)(CC(F)(F)F)c1ccccc1`, the TGI in assay [1], in assay [2], in assay [3], in assay [4], in assay [5] and in assay [6] was greater than 100 µM throughout. In addition, the TGI in assay [7] and in [9] was greater than 100 µM each time.
In the case of `C/C(=N\N=C(N)N)c1sc(-c2nc(C)c(/C(C)=N/N=C(N)N)s2)nc1C`, the TGI in assay [1] is greater than 100 µM; in assay [2], 88.2 µM; in assay [3], greater than 95.3 µM; in assay [4], greater than 100 µM; in assay [5], greater than 100 µM; in [6], greater than 58.3 µM. Moreover, the TGI in [7] is greater than 100 µM; in [8], greater than 100 µM; in assay [9], greater than 66.4 µM.
Turning to `O=[N+]([O-])C(=C(c1ccccc1)c1ccccc1)[N+](=O)[O-]`, the TGI in assay [1] stood at 35.5 µM; in [2], 8.74 µM; in assay [3] it was 6.71 µM; in assay [4], 24 µM; in assay [5], 26.4 µM; in assay [6] it was 9.68 µM. In addition, the results for the TGI in assay [7], in assay [8] and in assay [9] were 34.5 µM, 28.6 µM and 28.5 µM, respectively.
As for `Nc1nc(Cl)cc(NCCCCCCCCCCNc2cc(Cl)nc(N)n2)n1`, the TGI in assay [1] was greater than 100 µM; in [2], 34.6 µM; in assay [3], greater than 100 µM; in [4] it was greater than 100 µM; in assay [5], greater than 100 µM; in assay [6], 24.2 µM. The TGI in assay [7], in [8] and in [9] was greater than 100 µM throughout.
Take `N#CC(/C(=N\NC(N)=S)C(=O)NC1C2CC3CC(C2)CC1C3)c1ccc(Cl)cc1` (stereo unspecified): the concentration for total growth inhibition (TGI) in [1], in assay [2], in assay [3], in assay [4], in [5] and in assay [6] was greater than 100 µM throughout. Moreover, the TGI in [7], in assay [8] and in assay [9] was greater than 100 µM each time.
On to `Cc1cc(Br)cc(C)c1NC(=O)C(=O)C(C(=O)c1ccc(Cl)c(Cl)c1)C1OC(=O)c2ccccc21` (stereo unspecified), for which the TGI in [1], in assay [2], in assay [3], in assay [4], in assay [5] and in assay [6] was greater than 100 µM throughout. In addition, the TGI in [7], in assay [8] and in [9] was greater than 100 µM throughout.
`c1ccc(CN(Cc2ccccn2)Cn2cccn2)nc1`: the TGI is greater than 100 µM in assay [1]; 55.8 µM in assay [2]; greater than 100 µM in [3]; greater than 100 µM in [5]; greater than 100 µM in [6]; greater than 100 µM in assay [8]. Moreover, in [9], the TGI was greater than 100 µM.
For the molecule `Cc1ccc(NC(=O)NC23CC4CC(CC(F)(C4)C2)C3)cc1`, the TGI in [1], in assay [2], in [3], in assay [4], in assay [5] and in assay [6] was greater than 100 µM each time. For the same molecule, the TGI in [7] was greater than 100 µM.
As for `Cc1ccc(C)c2sc3cc(=O)ccc-3nc12`, the TGI in assay [1] is greater than 100 µM; in assay [2], 38.8 µM; in [4], greater than 100 µM; in [5], greater than 100 µM; in assay [7], 74.1 µM; in [8], 48.1 µM. Further, the TGI in assay [9] is greater than 100 µM.
As to `CC1=C[C@H]2C[C@@]3(C)O[C@@H]([C@]4(C)CC[C@H]([C@@H](C)C(=O)O)OO4)CC3C(C)(C)[C@H]2CC1` (stereo partly specified), the TGI in assay [1] was found to be 3.29 µM; in [2], 0.306 µM; in assay [3], 2.53 µM; in [4], 2.28 µM; in [5], 3.01 µM; in assay [6], 0.296 µM. The TGI is 4.67 µM in [7] and 2.9 µM in [8].
Regarding `C(=C1/CCCCC([n+]2ccccc2)=N1)/c1ccccc1`, the TGI in [1], in assay [2], in assay [3], in assay [4], in assay [5] and in [6] was greater than 100 µM throughout. The TGI in [7], in assay [8] and in [9] was greater than 100 µM each time.
On to `COc1ccc2c(c1)[n+]([O-])c(-c1ccc(Cl)c(Cl)c1)c(N)[n+]2[O-]`, for which the TGI was 68 µM in assay [1]; 61 µM in [2]; greater than 100 µM in assay [5]; greater than 100 µM in [7]; greater than 100 µM in assay [8]; greater than 100 µM in assay [9].
With `COc1ccc(CNc2cnc3cc(N)ccc3n2)cc1OC`, the TGI in [1], in [2], in assay [4], in assay [6], in [8] and in [9] was greater than 100 µM throughout.
In the case of `O=C(O)c1oc2ccc([N+](=O)[O-])c3c2c1CCC3`, the TGI in assay [1], in assay [2], in assay [3], in assay [4], in assay [5] and in assay [6] was greater than 100 µM in each case. In addition, the TGI in assay [7] and in assay [8] was greater than 100 µM each time.
`COc1ccccc1OCC(COC(=O)Nc1ccc(C)cc1)OC(=O)Nc1ccc(C)cc1` (stereo unspecified): the TGI in assay [1] is 33.9 µM; in assay [2], 37.4 µM; in assay [3] it was 20.2 µM; in assay [4], 35.3 µM; in assay [5], 27.3 µM; in assay [6], 30.2 µM. Further, the results for the TGI in assay [7] and in assay [9] were 47.4 µM and 59.6 µM, respectively.
In the case of `OCC(O)C(OC1OC(CO)C(O)C(O)C1O)c1nn(-c2ccc(F)cc2)c2nc3cc(Cl)c(Cl)cc3cc12` (stereo unspecified), the TGI in [1], in assay [3], in [4], in assay [5], in assay [6] and in [7] was greater than 100 µM each time. Moreover, the TGI in assay [8] and in assay [9] was greater than 100 µM each time.
With `CC1=NN(C(=O)Cc2ccccc2)C(=O)/C1=C\c1cccc(O)c1`, the TGI in assay [1], in assay [2], in [4], in assay [5], in [6] and in assay [7] was greater than 100 µM in each case. Further, the TGI in assay [8] and in assay [9] was greater than 100 µM in each case.
In the case of `Cc1ccc(NC(=O)CCC(=O)C(C#N)c2ccc(Cl)cc2)cc1C` (stereo unspecified), the TGI in assay [1], in assay [2], in [3], in assay [4], in assay [5] and in [6] was greater than 100 µM in each case. For the same molecule, the TGI in assay [7] and in assay [8] was greater than 100 µM throughout.
For the molecule `O=C(O)CNS(=O)(=O)c1ccc(NC(=O)c2cccc([N+](=O)[O-])c2)cc1`, the TGI in assay [1], in [2], in assay [3], in [4], in assay [5] and in assay [6] was greater than 100 µM each time. For the same molecule, the TGI in assay [7] and in assay [8] was greater than 100 µM throughout.
In the case of `COS(=O)CCOC(=O)c1ccccc1SSc1ccccc1C(=O)OCCS(=O)OC` (stereo unspecified), the TGI in assay [1] was 54.5 µM; in [3] it was 28 µM; in [5] it was greater than 100 µM; in assay [6] it was 61.6 µM; in [7], greater than 100 µM; in assay [8] it was 34.9 µM.
In the case of `NC(=O)Cn1c(=O)[nH]c(=O)c2[nH]cnc21`, the TGI in assay [1], in assay [2], in assay [3], in assay [4], in [5] and in [6] was greater than 100 µM each time. In addition, the TGI in [7] and in [9] was greater than 100 µM in each case.
Take `CC(C)c1cc2c(O)c(c1)Cc1cc(C(C)C)cc(c1O)Cc1cc(C(C)C)cc(c1O)Cc1cc(C(C)C)cc(c1O)Cc1cc(C(C)C)cc(c1O)Cc1cc(C(C)C)cc(c1O)C2`: the TGI in [1], in assay [2], in assay [3], in [4], in assay [5] and in [7] was greater than 100 µM in each case. In addition, the TGI in assay [8] is greater than 100 µM.
On to `O=C(O)C1C2CC3CC2CC31` (stereo unspecified), for which the TGI in assay [1], in [2], in assay [3], in [5], in assay [6] and in assay [7] was greater than 100 µM throughout. Besides, the TGI in [8] is greater than 100 µM.
With `Cc1nc(Nc2ccc([N+](=O)[O-])cc2)sc1C(=O)/C=C/c1ccc(N(C)C)cc1`, the TGI in [1], in assay [2], in assay [3], in [4], in assay [5] and in [6] was greater than 100 µM each time. Besides, the TGI in [7] is greater than 100 µM.
As to `CN(C)/C(=N/C(=O)Nc1ccccc1)SCc1ccccc1`, the TGI in assay [1], in assay [2], in assay [3], in assay [4], in assay [5] and in assay [6] was greater than 100 µM throughout. Also, the TGI in assay [7] and in assay [8] was greater than 100 µM in each case.
On to `C[Si](C)(C)[C@@]1([Se]c2ccccc2)CC[C@@H]1C(=O)c1ccccc1`, for which the TGI in assay [1], in assay [3], in assay [4], in assay [5], in assay [6] and in [7] was greater than 100 µM each time. Moreover, the concentration for total growth inhibition (TGI) in assay [8] was greater than 100 µM.
On to `OCC1CC2CC1C1(C2)OCCO1` (stereo unspecified), for which the TGI in [1], in [2], in [3], in [5], in assay [6] and in assay [7] was greater than 100 µM each time. The TGI in assay [8] and in [9] was greater than 100 µM throughout.
In the case of `N#CCc1nc2c(s1)C(=O)c1ccccc1C2=O`, the TGI in assay [1] came out at 29.3 µM; in [3], 49.4 µM; in [4], 38 µM; in [5], 31.1 µM; in assay [6] it was 28.1 µM; in assay [7], 37.2 µM. The TGI in assay [8] was determined as 31.1 µM.
`COc1cc(C(N)=O)c(OC)c(OC)c1OC`: the TGI in assay [1], in [2], in [3], in assay [4], in assay [5] and in assay [6] was greater than 100 µM throughout. Moreover, the TGI in [7] and in assay [8] was greater than 100 µM throughout.

As usually defined, the TGI is the concentration at which net growth stops. A higher TGI goes with lower sensitivity of the cells.
